Where “and” joins values, the source holds several entries; their conditions need not be identical. Equal values may be shown once. Marks after values point to notes of the source that are not given here.
Columns and labels:
[1] = tested on: spermatozoa from asthenozoospermic semen samples; test: Sperm kinematics by computer assisted semen analysis (CASA); assay type: cell-based, human; settings: 1 h after incubation; PTX 1 mM, PTXm-1 0.25 mM; mean ± SE, N = 28
Procedure: For the study, subjects with 2–7 days of sexual abstinence were asked to provide their ejaculates by masturbation. After the completion of semen analysis (WHO, 2010), the leftover semen sample from each subject was used for experiment within 1 h of collection and was equally divided into four groups. The semen samples were washed twice with EBSS media (with bicarbonate buffer) by centrifuging at 500 g for 8 min to remove the seminal plasma. […] The EBSS medium used was with bicarbonate buffer. The samples were incubated for 1 h at 37 °C and 5% CO2. The overlay containing motile fraction of capacitated spermatozoa were collected carefully without disturbing the pellet and used for further analysis. The swim-up fraction containing motile spermatozoa were assessed for motility using manual method and sperm motion characteristics using computer assisted sperm analysis (CASA) as described earlier. […] Percentage of spermatozoa with total and progressive motility was calculated. For CASA, 8 µL sperm suspension was placed on a clean microscopic slide, covered with coverslip (18 mm × 18 mm).

testicular spermatozoa = test: Twitching motility of testicular spermatozoa; assay type: cell-based, human; settings: PTX 1 mM, PTXm-1 0.25 mM; for spermatozoa with twitching motility vs control: increased incubation time (1 h)
Text: Testicular tissue from men diagnosed with prostate cancer and admitted for orchiectomy (N = 8, age 74.33 ± 5.61 years) were collected from Urology operation theater in sterile PBS. The testis was transferred to Petri dish, washed in phosphate buffered solution (PBS) and cut into small pieces. Seminiferous tubule contents were released into the Petri dish containing EBSS medium with 0.1% BSA by milking the seminiferous tubules with the help of with the help of sterile glass slides. The cell suspension was screened for the presence of testicular spermatozoa under inverted microscope (200 × magnification). The cell suspension was divided into four equal parts- (a) Control (C): […] (b) Vehicle control (VC): […] The testicular sperm suspension was processed by discontinuous gradient technique using 40% and 80% density solutions ([…], Germany). The discontinuous gradient column was prepared by adding 1 mL of 80% and 40% gradient solutions sequentially in a sterile test tube. The testicular cell suspension was carefully added above the gradients and centrifuged at 500 g for 20 min. The pellet obtained after centrifugation was further washed by centrifuging at 400 g for 8 min twice.

[2] = tested on: intracellular cAMP in spermatozoa; test: Intracellular cAMP in spermatozoa; assay type: cell-based, human; settings: 1 h after incubation; PTX 1 mM, PTXm-1 0.25 mM
Procedure: Sperm suspension was centrifuged at 800 g for 10 min and supernatant obtained was frozen at − 80 °C until further analysis. The cAMP level was measured using cAMP test kit as explained by the manufacturers (Elabscience®, Cat. No. E-EL-0056) as described in our earlier report. Briefly, 50 μL of cAMP detection standard or test samples were added to each well of the multi well plate, followed by addition of biotinylated detection solution (50 μL). After 45 min of incubation at 37 °C, the solutions from each well were decanted. The wells of the plate were further washed 3 times using wash buffer and then incubated with 100 μL horse radish peroxidase (HRP) conjugate for 30 min at 37 °C. Further, each well of the multi well plate was washed repeatedly (5 times) and then incubated with 90 μL substrate reagent for 15 min at 37 °C. Finally, the reaction was stopped by adding 50 μL of stop solution and, immediately OD450nm of the each well was measured using Skanit software 5.0 (Multiskan, Photometer, Thermoscientific). The assay was performed in duplicates and standard curve was plotted. The concentration of cAMP was extrapolated from the standard curve.

[3] = tested on: spermatozoa, oocytes and embryos of Swiss albino mice; test: In vitro fertilization and pre-implantation embryo development; assay type: cell-based; settings: for Total cell number (Mean ± SE): blastocysts, PTX 1 mM, PTXm-1 0.25 mM, control 92.78 ± 6.58; for Hatching rate at 120 h post insemination / Blastocyst rate at 120 h post insemination / Fertilization rate at 16 h post insemination: sperm treated with PTX 1 mM or PTXm-1 0.25 mM; for Hatching rate at 120 h post insemination: control 64.56; for Blastocyst rate at 120 h post insemination: control 81.67; for Fertilization rate at 16 h post insemination: control 83.56
Procedure: The adult female Swiss albino mice were stimulated using 5 IU of pregnant mare serum gonadotropin (PMSG) and 10 IU of human chorionic gonadotropin (hCG) at an interval of 48 h. At 13 h post hCG administration, the cumulus oocyte complexes (COCs) were collected by teasing the oviduct into M2 medium. To assess the effect of PTXm-1 on fertilization outcome and the early embryo development, Swiss albino mice were used. The male mice (6 to 8 weeks, N = 6 per trial, total 3 trials) were humanely sacrificed by cervical dislocation and cauda was dissected out. The IVF was performed as described in our earlier report. Briefly, the cauda was teased in a Petri dish containing EBSS (with 0.1% BSA) culture media and incubated at 37 °C, 5% CO2 incubator. After 2 h of incubation, the spermatozoa were collected and divided equally into 4 parts as C, VC, […] and PTXm-1 groups. The sperm suspension was centrifuged at 250 g for 8 min and the supernatant was discarded. […] The overlay containing motile sperm fraction of were collected carefully without disturbing the pellet, and were used for preparation of insemination droplets (80 µL) which was covered with paraffin oil (Cat. No. 61822605001730, Merck, Germany). The female mice were sacrificed humanely by cervical dislocation (N = 12 per trial, total 3 trials). […] […] Blastocyst rate, hatching rate and, DNA damage and total cell number was assessed in blastocysts.

[4] = tested on: Oct4, Sox2, Nanog, Cdx2 in blastocysts; test: mRNA expression of pluripotency and trophectoderm genes in blastocysts; assay type: cell-based, Swiss albino mice; settings: PTX 1 mM, PTXm-1 0.25 mM
Procedure: RNA was extracted from blastocyst stage embryos (30 per group) using an RNA isolation aqueous micro kit (Catalogue No. AM1931; Ambion, Foster City, CA, USA) as explained. Briefly, embryos were lysed using lysis buffer to release total RNA and was eluted using elution buffer. RNA obtained was treated with DNase for 20 min at 37 °C and stored at − 80 °C. cDNA was synthesized using a Superscript first strand cDNA synthesis kit for reverse transcription polymerase chain reaction (Catalogue No. E6300; NewEngland Biolabs, Ipswich, MA, USA).
Quantitative PCR for relative expression of Sox2, Nanog, and Oct4 mRNA was done using StepOne real-time PCR system (Applied Biosystems, California, USA) with TaqMan® Gene Expression Assay probes and TaqMan® Fast Advanced MixThe relative mRNA expression of Cdx2 was also estimated using real-time PCR system with SYBER Green chemistry (TaKaRa, Shiga, Japan, Cat. No. RR420A). All the data were normalized with GAPDH housekeeping gene as an internal control. The relative expression levels were calculated in terms of fold change. The IDs for TaqMan® Gene Expression Assay probes used in this study and the specific primers used for Cdx2 gene and GAPDH housekeeping gene are given in Supplementary Table S1.

[5] = 15 min after incubation, control 5.06 ± 0.98%

## CC(=O)CCCCn1c(=O)c2c(ncn2C)n(C)c1=O [PTX, pentoxifylline]
[1]
  ALH: 5.04 ± 0.06^b µm
  BCF: 8.56 ± 0.17 Hz
  LIN: 28.47 ± 1.01
  STR: 66.94 ± 0.98^b,c
  VAP: 47.89 ± 0.96 µm/s
  VCL: 112.60 ± 3.10^b µm/s
  VSL: 28.34 ± 4.67 µm/s
  WOB: 42.54 ± 0.61^b
Testicular spermatozoa; [5]
  spermatozoa with twitching motility: 11.78 ± 1.36%
Testicular spermatozoa; 24 h incubation
  spermatozoa with twitching motility: 7.90 ± 1.06%
Testicular spermatozoa
  spermatozoa with twitching motility vs control: significantly higher (P < 0.001)
[2]
  intracellular cAMP level vs control and vehicle control: significantly higher
[3]
  Total cell number (Mean ± SE): 88.91 ± 6.56^b,c
  Hatching rate at 120 h post insemination: 67.56^a,c %
  Blastocyst rate at 120 h post insemination: 86.34^a,c %
  Fertilization rate at 16 h post insemination: 95.64% and 95.64^b,c %
[4]
  expression of pluripotency genes in blastocysts: did not differ between the groups

## COc1ccc2cc(/C=C/C(=O)CCCCn3c(=O)c4c(ncn4C)n(C)c3=O)ccc2c1 [PTXm-1]
[1]
  ALH: 5.21 ± 0.09^b µm
  BCF: 9.67 ± 0.19^b,c,d Hz
  LIN: 27.78 ± 1.02
  VAP: 45.90 ± 0.97 µm/s
  VCL: 109.6 ± 3.27^a µm/s
  VSL: 27.67 ± 3.79 µm/s
  WOB: 41.87 ± 0.70^b
Testicular spermatozoa; [5]
  spermatozoa with twitching motility: 9.95 ± 0.79%
Testicular spermatozoa; 24 h incubation
  spermatozoa with twitching motility: 13.39 ± 0.65%
Testicular spermatozoa
  spermatozoa with twitching motility vs control: significantly higher (P < 0.001)
[2]
  intracellular cAMP level vs control and vehicle control: significantly higher
[3]
  Total cell number (Mean ± SE): 93.23 ± 8.56^e
  Hatching rate at 120 h post insemination: 66.89^b,d %
  Blastocyst rate at 120 h post insemination: 88.45^b,d %
  Fertilization rate at 16 h post insemination: 96.25% and 96.25^b,c %
[4]
  expression of pluripotency genes in blastocysts: did not differ between the groups
